In data set [1] the test system is Human Retinal Microvascular Endothelial (hRMVE) Cells (hRMVEC). The data set can be described thus: Growth inhibition of hRMVE cells under VEGF stimulation (MTT assay). The conditions noted are these: recombinant human VEGF, 48 hours, read-out: Cell Growth Inhibition Activity. In kind it is cell-based.
Data set [2] can be described thus: Solubility test in 0.1% phosphate buffer solution (pH 7.0). The conditions noted are these: aqueous buffer, thermodynamic from solid; 0.1% phosphate buffer solution (pH 7.0), room temperature overnight. It counts as physicochemical. How it is done:
The mixture was subjected to ultrasonic irradiation for 30 seconds, and then shaken at room temperature overnight. The resulting suspension was left at rest at room temperature for 30 minutes, then filtered through a chromatography disc (0.20 μm) to prepare a sample solution. The sample solution and the standard solution were analyzed by LC-MS (product name: ACQUITY UPLC H-CLASS SYSTEM and Xevo TQ-S, produced by Nihon Waters K.K.), and a solubility was calculated from the obtained peak area value by an external standard method.

Data on 28 molecules can be found in patent US9617222B1, “Alkynyl indazole derivative and use thereof” (SENJU PHARMACEUTICAL CO., LTD., priority 2014, dated 2017).

Values after ≈ are worked out from the molar mass of the structure shown.

For `CNC(=O)c1ccccc1Sc1ccc2c(C#Cc3cccc(NC(=O)NCCOCCOCCOC)c3)n[nH]c2c1` [Compound 3, 2-[(3-{[3-(3-{2-[2-(2-methoxyethoxy)ethoxy]ethyl}ureido)phenyl]ethynyl}-1H-indazol-6-yl)thio]-N-methylbenzamide], the IC50 in data set [1] was 11 nM.
The solubility is the dissolved amount per volume that the medium holds. Lower therefore signals a poorly soluble substance. `CNC(=O)c1ccccc1Sc1ccc2c(C#Cc3cccc(NC(=O)NCCOCCOCCOCCOC)c3)n[nH]c2c1` [Compound 4] showed a solubility in data set [2] of 0.31 µg/mL (≈ 0.491 µM).
On the same count and under the same terms, for `CNC(=O)c1ccccc1Sc1ccc2c(C#Cc3cccc(NC(=O)NCCOCCOCCOCCOCCOC)c3)n[nH]c2c1` [Compound 5, 2-{[3-({3-[3-(2,5,8,11,14-pentaoxahexadecane-16-yl)ureido]phenyl}ethynyl)-1H-indazol-6-yl]thio}-N-methylbenzamide] the value was 0.99 µg/mL (≈ 1.46 µM); for `CNC(=O)c1ccccc1Sc1ccc2c(C#Cc3ccc(NC(=O)NCCOCCOCCOCCOC)cc3)n[nH]c2c1` [Compound 9, 2-{[3-({4-[3-(2,5,8,11-tetraoxatridecane-13-yl)ureido]phenyl}ethynyl)-1H-indazol-6-yl]thio}-N-methylbenzamide], 1.2 µg/mL (≈ 1.9 µM).
On the same count and under the same terms, next, `CNC(=O)c1ccccc1Sc1ccc2c(C#Cc3ccc(NC(=O)NCCOCCOCCOCCOCCOC)cc3)n[nH]c2c1` [Compound 10, 2-{[3-({4-[3-(2,5,8,11,14-pentaoxahexadecane-16-yl)ureido]phenyl}ethynyl)-1H-indazol-6-yl]thio}-N-methylbenzamide]: 2.5 µg/mL (≈ 3.7 µM).
As for `CNC(=O)c1ccccc1Sc1ccc2c(C#Cc3cccc(NC(=O)OCCOCCOCCOC)c3)n[nH]c2c1` [Compound 13, 2-[2-(2-methoxyethoxy)ethoxy]ethyl {3-[(6-{[2-(methylcarbamoyl)phenyl]thio}-1H-indazol-3-yl)ethynyl]phenyl}carbamate], in data set [1], the IC50 is 9.3 nM.
As to `CNC(=O)c1ccccc1Sc1ccc2c(C#Cc3ccc(NC(=O)OCCOCCOCCOC)cc3)n[nH]c2c1` [Compound 16, 2-[2-(2-methoxyethoxy)ethoxy]ethyl {4-[(6-{[2-(methylcarbamoyl)phenyl]thio}-1H-indazol-3-yl)ethynyl]phenyl}carbamate], the IC50 in data set [1] worked out at 1.2 nM. In data set [2], this molecule yielded a solubility of 0.27 µg/mL (≈ 0.459 µM).
For the molecule `CNC(=O)c1ccccc1Sc1ccc2c(C#Cc3ccc(NC(=O)OCCOCCOCCOCCOC)cc3)n[nH]c2c1` [Compound 17, 2,5,8,11-tetraoxatridecane-13-yl {4-[(6-{[2-(methylcarbamoyl)phenyl]thio}-1H-indazol-3-yl)ethynyl]phenyl}carbamate], the solubility in data set [2] was found to be 0.38 µg/mL (≈ 0.601 µM).
`CNC(=O)c1ccccc1Sc1ccc2c(C#Cc3ccc(NC(=O)OCCOCCOCCOCCOCCOC)cc3)n[nH]c2c1` [Compound 18, 2,5,8,11,14-pentaoxahexadecane-16-yl {4-[(6-{[2-(methylcarbamoyl)phenyl]thio}-1H-indazol-3-yl)ethynyl]phenyl}carbamate] gave a solubility in data set [2] of 0.86 µg/mL (≈ 1.27 µM).
In the case of `CNC(=O)c1ccccc1Sc1ccc2c(C#Cc3ccc(NC(=O)COCCOCCOCCOC)cc3)n[nH]c2c1` [Compound 20, N-{4-[(6-{[2-(methylcarbamoyl)phenyl]thio}-1H-indazol-3-yl)ethynyl]phenyl}-2,5,8,11-tetraoxatridecane-13-amide], in data set [1], the IC50 turned out to be 1.7 nM.
On to `CNC(=O)c1ccccc1Sc1ccc2c(C#Cc3ccc(NC(=O)COCCOCCOCCOCCOCCOC)cc3)n[nH]c2c1` [Compound 22, N-{4-[(6-{[2-(methylcarbamoyl)phenyl]thio}-1H-indazol-3-yl)ethynyl]phenyl}-2,5,8,11,14,17-hexaoxanonadecane-19-amide], for which, in data set [2], the solubility came out at 3.3 µg/mL (≈ 4.78 µM).
With `CNC(=O)c1ccccc1Sc1ccc2c(C#Cc3cccc(NCCOCCOCCOC)c3)n[nH]c2c1` [Compound 25, 2-[(3-{[3-({2-[2-(2-methoxyethoxy)ethoxy]ethyl}amino)phenyl]ethynyl}-1H-indazol-6-yl)thio]-N-methylbenzamide], in data set [1], the IC50 is 10 nM.
`CNC(=O)c1ccccc1Sc1ccc2c(C#Cc3ccc(NCCOCCOCCOCCOC)cc3)n[nH]c2c1` [Compound 28, 2-{[3-({4-[(2,5,8,11-tetraoxatridecane-13-yl)amino]phenyl}ethynyl)-1H-indazol-6-yl]thio}-N-methylbenzamide] registered a solubility in data set [2] of 0.17 µg/mL (≈ 0.289 µM).
Still for that read-out and setting: next, `CNC(=O)c1ccccc1Sc1ccc2c(C#Cc3ccc(NCCOCCOCCOCCOCCOC)cc3)n[nH]c2c1` [Compound 29, 2-{[3-({4-[(2,5,8,11,14-pentaoxahexadecane-16-yl)amino]phenyl}ethynyl)-1H-indazol-6-yl]thio}-N-methylbenzamide]: 0.89 µg/mL (≈ 1.41 µM); `CNC(=O)c1ccccc1Sc1ccc2c(C#Cc3cncc(NC(=O)NCCOCCOCCOC)c3)n[nH]c2c1` [Compound 30, 2-[(3-{[5-(3-{2-[2-(2-methoxyethoxy)ethoxy]ethyl}ureido)pyridine-3-yl]ethynyl}-1H-indazol-6-yl)thio]-N-methylbenzamide]: 0.58 µg/mL (≈ 0.985 µM).
Take `CNC(=O)c1ccccc1Sc1ccc2c(C#Cc3cncc(NC(=O)NCCOCCOCCOCCOCCOC)c3)n[nH]c2c1` [Compound 31, 2-{[3-({5-[3-(2,5,8,11,14-pentaoxahexadecane-16-yl)ureido]pyridine-3-yl}ethynyl)-1H-indazol-6-yl]thio}-N-methylbenzamide]: in data set [2], the solubility came to 9.9 µg/mL (≈ 14.6 µM).
`CNC(=O)c1ccccc1Sc1ccc2c(C#Cc3ccc(NC(=O)NCCOCCOCCOC)nc3)n[nH]c2c1` [Compound 32, 2-[(3-{[6-(3-{2-[2-(2-methoxyethoxy)ethoxy]ethyl}ureido)pyridine-3-yl]ethynyl}-1H-indazol-6-yl)thio]-N-methylbenzamide]: in data set [1], the IC50 was found to be 3.8 nM.
For `CNC(=O)c1ccccc1Sc1ccc2c(C#Cc3ccc(NC(=O)NCCOCCOCCOCCOCCOC)nc3)n[nH]c2c1` [Compound 34, 2-{[3-({6-[3-(2,5,8,11,14-pentaoxahexadecane-16-yl)ureido]pyridine-3-yl}ethynyl)-1H-indazol-6-yl]thio}-N-methylbenzamide], in data set [2], the solubility came to 2.6 µg/mL (≈ 3.84 µM).
Consider `CNC(=O)c1ccccc1Sc1ccc2c(C#Cc3ccc(NC(=O)NCCOCCOCCOC)cn3)n[nH]c2c1` [Compound 35, 2-[(3-{[5-(3-{2-[2-(2-methoxyethoxy)ethoxy]ethyl}ureido)pyridine-2-yl]ethynyl}-1H-indazol-6-yl)thio]-N-methylbenzamide], for which the IC50 in data set [1] was 3.2 nM. In data set [2], the solubility is 4.4 µg/mL (≈ 7.47 µM).
As for `CNC(=O)c1ccccc1Sc1ccc2c(C#Cc3ccc(NC(=O)NCCOCCOCCOCCOC)cn3)n[nH]c2c1` [Compound 36, 2-{[3-({5-[3-(2,5,8,11-tetraoxatridecane-13-yl)ureido]pyridine-2-yl}ethynyl)-1H-indazol-6-yl]thio}-N-methylbenzamide], the solubility in data set [2] amounted to 16 µg/mL (≈ 25.3 µM).
Consider `CNC(=O)c1ccccc1Sc1ccc2c(C#Cc3ccc(NC(=O)NCCOCCOCCOCCOCCOC)cn3)n[nH]c2c1` [Compound 37, 2-{[3-({5-[3-(2,5,8,11,14-pentaoxahexadecane-16-yl)ureido]pyridine-2-yl}ethynyl)-1H-indazol-6-yl]thio}-N-methylbenzamide], for which the solubility in data set [2] stood at 29 µg/mL (≈ 42.8 µM). This solubility lies about 1.8-fold higher than the previous one.
`CNC(=O)c1ccccc1Sc1ccc2c(C#Cc3ccc(NC(=O)COCCOCCOCCOC)nc3)n[nH]c2c1` [Compound 38, N-{5-[(6-{[2-(methylcarbamoyl)phenyl]thio}-1H-indazol-3-yl)ethynyl]pyridine-2-yl}-2,5,8,11-tetraoxatridecane-13-amide]: the IC50 in data set [1] was determined as 3.5 nM.
Molecule `CNC(=O)c1ccccc1Sc1ccc2c(C#Cc3ccc(NC(=O)COCCOCCOCCOC)cn3)n[nH]c2c1` [Compound 41] returned a solubility in data set [2] of 0.52 µg/mL (≈ 0.861 µM).
`CNC(=O)c1ccccc1Sc1ccc2c(C#Cc3ccc(NC(=O)NCCOCCOCCO)cc3)n[nH]c2c1` [Compound 42, 2-[(3-{[4-(3-{2-[2-(2-hydroxyethoxy)ethoxy]ethyl}ureido)phenyl]ethynyl}-1H-indazol-6-yl)thio]-N-methylbenzamide]: in data set [1], the IC50 worked out at 1.6 nM. For the same molecule, the solubility in data set [2] was found to be 3.1 µg/mL (≈ 5.4 µM).
With `CNC(=O)c1ccccc1Sc1ccc2c(C#Cc3ccc(NC(=O)NCCOCCOCCN)cc3)n[nH]c2c1` [Compound 43, 2-[(3-{[4-(3-{2-[2-(2-aminoethoxy)ethoxy]ethyl}ureido)phenyl]ethynyl}-1H-indazol-6-yl)thio]-N-methylbenzamide], the IC50 in data set [1] was found to be 4 nM. This molecule gave a solubility in data set [2] of 32 µg/mL (≈ 55.9 µM).
On to `CNC(=O)c1ccccc1Sc1ccc2c(C#Cc3ccc(NC(=O)NCCOCCOCCN(C)C)cc3)n[nH]c2c1` [Compound 44, 2-{[3-({4-[3-(2-{2-[2-(dimethylamino)ethoxy]ethoxy}ethyl)ureido]phenyl}ethynyl)-1H-indazol-6-yl]thio}-N-methylbenzamide], for which the IC50 in data set [1] came to 3 nM. The molecule further yielded a solubility in data set [2] of 7.6 µg/mL (≈ 12.7 µM).
As to `CNC(=O)c1ccccc1Sc1ccc2c(C#Cc3ccc(NC(=O)NCCOCCOCCNC(C)=O)cc3)n[nH]c2c1` [Compound 45, 2-[(3-{[4-(3-{2-[2-(2-acetamideethoxy)ethoxy]ethyl}ureido)phenyl]ethynyl}-1H-indazol-6-yl)thio]-N-methylbenzamide], the IC50 in data set [1] turned out to be 2.5 nM. Besides, the solubility in data set [2] worked out at 0.56 µg/mL (≈ 0.911 µM).
As to `CNC(=O)c1ccccc1Sc1ccc2c(C#Cc3ccc(NC(=O)NCCOCCOCCN4CCOCC4)cc3)n[nH]c2c1` [Compound 46, N-methyl-2-[(3-{[4-(3-{2-[2-(2-morpholinoethoxy)ethoxy]ethyl}ureido)phenyl]ethynyl}-1H-indazol-6-yl)thio]benzamide], the IC50 in data set [1] stood at 3.2 nM. Besides, the solubility in data set [2] was determined as 1.4 µg/mL (≈ 2.18 µM).
